According to article PMC5681660, “Reduced hepatitis B and D viral entry using clinically applied drugs as novel inhibitors of the bile acid transporter NTCP” (Scientific Reports, 2017):
Where a name gives a salt, the structure may show the parent alone. Read-outs that look alike come from different tables or passages of the source.

Key:
human NTCP [1] = target: T1, human NTCP (Homo sapiens, UniProt Q14973); experiment: Screening taurocholate uptake assay (96-well, [14C]taurocholate, 10 µM drug)
T1 sequence (Q14973 1-349): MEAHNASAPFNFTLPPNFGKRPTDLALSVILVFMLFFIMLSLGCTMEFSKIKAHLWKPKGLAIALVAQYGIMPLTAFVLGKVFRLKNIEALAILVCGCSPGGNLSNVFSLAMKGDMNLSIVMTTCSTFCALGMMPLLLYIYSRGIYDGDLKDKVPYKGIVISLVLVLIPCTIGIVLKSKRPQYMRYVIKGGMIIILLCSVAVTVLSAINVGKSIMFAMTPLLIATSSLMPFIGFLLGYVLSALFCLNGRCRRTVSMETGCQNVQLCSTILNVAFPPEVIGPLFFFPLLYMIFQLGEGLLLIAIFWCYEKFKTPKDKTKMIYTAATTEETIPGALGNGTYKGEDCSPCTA

human NTCP [2] = target: T1, human NTCP; experiment: Screening fluorescent competitive Myrcludex B-FITC binding assay (96-well, 10 µM drug)
[3] = combined ranking from functional and binding screening assays
[4] = screen, 10 µM drug, taurocholate uptake
[5] = screen, 10 µM drug, Myrcludex B-FITC binding
[6] = Prestwick library screen, taurocholate uptake, 10 µM drug
[7] = ranking score beside the functional and binding assay B-scores of the screen
[8] = Prestwick library screen, Myrcludex B-FITC binding, 10 µM drug
[9] = Prestwick library screen, 10 µM drug, B-score of taurocholate uptake
[10] = combined ranking from functional and binding assay B-scores
[11] = Prestwick library screen, 10 µM drug, B-score of Myrcludex B-FITC binding

| SMILES | Ranking score (human NTCP [1]; [3]) | B-score functional assay (human NTCP [1]; [4]) | B-score binding assay (human NTCP [2]; [5]) | B-score functional assay (human NTCP [1]; [9]) | Ranking score (human NTCP [1]; [10]) | B-score binding assay (human NTCP [2]; [11]) | also measured |
| --- | --- | --- | --- | --- | --- | --- | --- |
| CC(=O)O[C@H]1CC[C@@]2(C)C(=CC[C@@H]3[C@@H]2CC[C@]2(C)C(=O)CC[C@@H]32)C1 [Dehydroisoandosterone 3-acetate] | 438.862 | 0.002 | -0.747 |  |  |  |  |
| CCN(CC)CCNC(=O)c1ccc(N)cc1 [Procainamide hydrochloride] |  |  |  |  |  |  | B-score functional assay (human NTCP [1]; [6]): 0.646; Ranking score (human NTCP [1]; [7]): 672.44; B-score binding assay (human NTCP [2]; [8]): -0.246 |
| COc1ccccc1N1CCN(CCCNc2cc(=O)n(C)c(=O)n2C)CC1 [Urapidil hydrochloride] |  |  |  | 0.807 | 1027.42 | 1.015 |  |
| O=c1[nH]cnc2c1ncn2[C@H]1CC[C@@H](CO)O1 [Didanosine] |  |  |  | 0.086 | 927.069 | 1.663 |  |
| COc1cc([S+](C)[O-])ccc1-c1nc2ncccc2[nH]1 (stereo not drawn) [Sulmazole] | 402.209 | 0.016 | -0.978 |  |  |  |  |
| CC(c1cc2ccccc2s1)N(O)C(N)=O (stereo not drawn) [Zileuton] |  |  |  |  |  |  | B-score functional assay (human NTCP [1]; [6]): -0.271; Ranking score (human NTCP [1]; [7]): 706.817; B-score binding assay (human NTCP [2]; [8]): 1.294 |
| Oc1ncnc2[nH]ncc12 [Allopurinol] |  |  |  |  |  |  | B-score functional assay (human NTCP [1]; [6]): 0.076; Ranking score (human NTCP [1]; [7]): 820.729; B-score binding assay (human NTCP [2]; [8]): 0.547 |
| CCC(Cc1c(I)cc(I)c(N)c1I)C(=O)O (stereo not drawn) [Iopanoic acid] | 395.161 | -1.985 | 1.953 |  |  |  |  |
| CN(C)CCN(Cc1ccc(Cl)cc1)c1ccccn1.Cl [Chloropyramine hydrochloride] | 387.298 | -2.146 | 2.853 |  |  |  |  |
| NS(=O)(=O)c1cc2c(cc1Cl)NC(CC1CCCC1)NS2(=O)=O (stereo not drawn) [Cyclopenthiazide] |  |  |  |  |  |  | B-score functional assay (human NTCP [1]; [6]): -0.118; Ranking score (human NTCP [1]; [7]): 797.145; B-score binding assay (human NTCP [2]; [8]): 2.395 |
| Nc1ccc(S(=O)(=O)[N-]c2cnc3ccccc3n2)cc1.[Na+] [Sulfaquinoxaline sodium salt] |  |  |  | 0.659 | 893.639 | 0.273 |  |
| Cc1c(N(C)CS(=O)(=O)[O-])c(=O)n(-c2ccccc2)n1C.[Na+] [Dipyrone] | 355.307 | -0.152 | -0.963 |  |  |  |  |
| Cc1cc2cc3c(C)cc(=O)oc3c(C)c2o1 [Trioxsalen] |  |  |  | 0.56 | 1035.49 | 1.537 |  |
| O=C1CCc2cc(OCCCCc3nnnn3C3CCCCC3)ccc2N1 [Cilostazol] | 446.637 | -0.174 | -0.418 |  |  |  |  |
| CC(C)/N=c1\cc2n(-c3ccc(Cl)cc3)c3ccccc3nc-2cc1Nc1ccc(Cl)cc1 [Clofazimine] | 436.188 | -0.006 | -0.74 |  |  |  |  |
| CC[N+](C)(C)c1cccc(O)c1 [Edrophonium chloride] | 420.888 | -1.061 | 0.083 |  |  |  |  |
| CC[C@H]1OC(=O)[C@H](C)[C@@H](O[C@H]2C[C@@](C)(OC)[C@@H](O)[C@H](C)O2)[C@H](C)[C@@H](O[C@@H]2O[C@H](C)C[C@H](N(C)C)[C@H]2O)[C@](C)(O)C[C@@H](C)CN(C)[C@H](C)[C@@H](O)[C@]1(C)O [Azithromycin] |  |  |  | 0.119 | 972.082 | 2.513 |  |
| Nc1ccn([C@@H]2O[C@H](CO)[C@@H](O)C2(F)F)c(=O)n1 [Gemcitabine] |  |  |  |  |  |  | B-score functional assay (human NTCP [1]; [6]): 0.015; Ranking score (human NTCP [1]; [7]): 717.496; B-score binding assay (human NTCP [2]; [8]): 0.165 |
| NCCCC[C@H](N[C@@H](CCc1ccccc1)C(=O)O)C(=O)N1CCC[C@H]1C(=O)O [Lisinopril] | 445.618 | 1.757 | -1.412 |  |  |  |  |
| [H]/N=C(/N)NS(=O)(=O)c1ccc(N)cc1 [Sulfaguanidine] |  |  |  |  |  |  | B-score functional assay (human NTCP [1]; [6]): -0.516; Ranking score (human NTCP [1]; [7]): 669.134; B-score binding assay (human NTCP [2]; [8]): 2.333 |
| CCCN[C@H]1CCc2nc(N)sc2C1 [Pramipexole dihydrochloride] | 303.528 | -1.48 | -0.164 |  |  |  |  |
| CCN(CC)CCOC(=O)C1(c2ccc([N+](=O)[O-])cc2)CCCC1.Cl [Nitrocaramiphen hydrochloride] |  |  |  | 0.881 | 904.838 | 0.18 |  |

| SMILES | Ranking score (human NTCP [1]; [3]) | B-score functional assay (human NTCP [1]; [4]) | B-score binding assay (human NTCP [2]; [5]) | B-score functional assay (human NTCP [1]; [9]) | Ranking score (human NTCP [1]; [10]) | B-score binding assay (human NTCP [2]; [11]) | also measured |
| --- | --- | --- | --- | --- | --- | --- | --- |
| CCCNC(C)C(=O)Nc1ccccc1C (stereo not drawn) [Prilocaine hydrochloride] | 304.329 | 0.027 | -1.737 |  |  |  |  |
| C#C[C@]1(O)CC[C@H]2[C@@H]3CCC4=C(CCC(=O)C4)[C@H]3CC[C@@]21C [Norethynodrel] |  |  |  |  |  |  | B-score functional assay (human NTCP [1]; [6]): 0.092; Ranking score (human NTCP [1]; [7]): 749.492; B-score binding assay (human NTCP [2]; [8]): 0.121 |
| CN(C)[C@@H]1C(O)=C(C(N)=O)C(=O)[C@@]2(O)C(O)=C3C(=O)c4c(O)cccc4[C@@](C)(O)[C@H]3[C@H](O)[C@@H]12 [Oxytetracycline dihydrate] |  |  |  | 0.414 | 958.668 | 1.019 |  |
| CC(COc1ccccc1)NC(C)C(O)c1ccc(O)cc1 (stereo not drawn) [Isoxsuprine hydrochloride] |  |  |  | 0.459 | 888.476 | 0.408 |  |
| Nc1[nH]c(=O)ncc1F [Flucytosine] | 352.224 | -1.554 | 0.063 |  |  |  |  |
| COc1ccc2[nH]cc(CCNC(C)=O)c2c1 [Melatonin] |  |  |  | 0.509 | 864.497 | 0.248 |  |
| CC(=O)N[C@@H](CC(=O)N[C@@H](CCC(=O)O)C(=O)O)C(=O)O [Spaglumic acid] | 411.514 | -0.043 | -0.793 |  |  |  |  |
| Cc1onc(-c2c(Cl)cccc2Cl)c1C(=O)N[C@@H]1C(=O)N2[C@@H]1SC(C)(C)[C@@H]2C(=O)[O-].O.[Na+] [Dicloxacillin sodium salt hydrate] |  |  |  | 0.63 | 908.983 | 0.373 |  |
| COc1cc2c(cc1OC)C(C)NCC2.Cl (stereo not drawn) |  |  |  | 2.498 | 1023.83 | 0.343 |  |
| CCCNC(C)C(=O)Nc1c(C)csc1C(=O)OC (stereo not drawn) [Articaine hydrochloride] | 451.414 | -1.04 | 0.267 |  |  |  |  |
| COc1cc(C)c(/C=C/C(C)=C/C=C/C(C)=C/C(=O)O)c(C)c1C [Acitretin] | 302.82 | 0.046 | -1.766 |  |  |  |  |
| COc1ccc(C(Cl)=C(c2ccc(OC)cc2)c2ccc(OC)cc2)cc1 [Chlorotrianisene] |  |  |  | 0.481 | 983.616 | 1.19 |  |
| Br.COc1ccc2c(c1)[C@]13CCCC[C@@H]1[C@H](C2)N(C)CC3.O |  |  |  | 0.044 | 928.917 | 2.674 |  |
| NC(=O)N1c2ccccc2CC(=O)c2ccccc21 [Oxcarbazepine] |  |  |  |  |  |  | B-score functional assay (human NTCP [1]; [6]): 0.032; Ranking score (human NTCP [1]; [7]): 789.959; B-score binding assay (human NTCP [2]; [8]): 0.508 |
| CC(C)(CO)[C@@H](O)C(=O)NCCCO [Panthenol (D)] |  |  |  | 0.501 | 899.92 | 0.428 |  |
| C[C@](N)(Cc1ccc(O)c(O)c1)C(=O)O [Methyldopa (L,-)] |  |  |  |  |  |  | B-score functional assay (human NTCP [1]; [6]): 1.009; Ranking score (human NTCP [1]; [7]): 793.128; B-score binding assay (human NTCP [2]; [8]): -0.046 |
| Cc1cnc(C(=O)NCCc2ccc(S(=O)(=O)NC(=O)NC3CCCCC3)cc2)cn1 [Glipizide] | 412.592 | -1.639 | 0.997 |  |  |  |  |
| C[N+](C)(C)CCCCCC[N+](C)(C)C.O.O.[Br-].[Br-] [Hexamethonium dibromide dihydrate] |  |  |  |  |  |  | B-score functional assay (human NTCP [1]; [6]): -0.02; Ranking score (human NTCP [1]; [7]): 696.207; B-score binding assay (human NTCP [2]; [8]): 0.191 |
| O=C1CN(/N=C/c2ccc(-c3ccc([N+](=O)[O-])cc3)o2)C(=O)[N-]1.[Na+] [Dantrolene sodium salt] | 342.783 | -0.011 | -1.319 |  |  |  |  |
| CC(Oc1ccccc1)C(=O)N[C@@H]1C(=O)N2[C@@H]1SC(C)(C)[C@@H]2C(=O)[O-].[K+] (stereo partly drawn) [Phenethicillin potassium salt] | 437.958 | -0.676 | -0.048 |  |  |  |  |
| COc1cccc2c1C(=O)c1c(O)c3c(c(O)c1C2=O)C[C@@](O)(C(=O)CO)C[C@@H]3O[C@H]1C[C@H](N)[C@@H](O)[C@H](C)O1 [Epirubicin hydrochloride] |  |  |  |  |  |  | B-score functional assay (human NTCP [1]): 0.079; Ranking score (human NTCP [1]): 915.844; B-score binding assay (human NTCP [2]): 1.555 |
| NC(=O)N1c2ccccc2C=Cc2ccccc21 [Carbamazepine] |  |  |  |  |  |  | B-score functional assay (human NTCP [1]; [6]): -0.062; Ranking score (human NTCP [1]; [7]): 671.795; B-score binding assay (human NTCP [2]; [8]): 0.183 |
